Source: PMC1839166, “Type III Effector Activation via Nucleotide Binding, Phosphorylation, and Host Target Interaction” (PLoS Pathogens, 2007)

Molecular target: T1, AvrB (Pseudomonas savastanoi, UniProt P13835)
T1 construct: recombinant in E. coli BL21 Rosetta from pProEX-HTa; N-terminal His tag removed with TEV protease; residues 16 to 319 modelled in the ADP complex; 36 kDa
Experiment: X-ray crystallography, crystal soak
Assay type: binding
Conditions: 5 mM nucleotide soak about 1 d, pH 7.5, with and without 5 mM MgCl2; lower lobe pocket (Y65, R99, R266)

T1 sequence (P13835 whole entry, the tested form may be a part): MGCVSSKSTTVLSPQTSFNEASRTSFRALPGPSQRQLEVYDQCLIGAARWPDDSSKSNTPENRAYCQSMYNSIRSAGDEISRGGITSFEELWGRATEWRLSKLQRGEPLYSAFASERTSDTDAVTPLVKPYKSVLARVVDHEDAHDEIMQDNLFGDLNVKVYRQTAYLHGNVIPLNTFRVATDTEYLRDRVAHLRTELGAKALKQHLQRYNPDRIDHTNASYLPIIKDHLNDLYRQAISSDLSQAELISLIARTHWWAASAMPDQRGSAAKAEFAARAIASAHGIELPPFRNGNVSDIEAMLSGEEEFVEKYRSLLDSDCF

## Nc1ncnc2c1ncn2[C@@H]1O[C@H](COP(=O)(O)OP(=O)(O)O)[C@@H](O)[C@H]1O [ADP]
  X-ray crystallography, crystal soak: We found that crystallized AvrB could bind ADP within the lower lobe pocket
